Measurements: PubChem BioAssay (NCI)
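Step 1: Grow cells in 96-well plates. Step 2: Expose to compound for 48 hours at 5 concentrations. Step 3: Interpolate endpoints linearly; if unreached, use highest concentration. TGI denotes the concentration required for complete inhibition of growth.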

Experiments:
Assay in all cases: DTP human tumour cell line panel, 48 h
EKVX NSCLC = tested on: EKVX NSCLC
HOP-92 NSCLC = tested on: HOP-92 NSCLC
MDA-MB-231 breast = tested on: MDA-MB-231 breast
OVCAR-5 ovarian = tested on: OVCAR-5 ovarian
COLO 205 colon = tested on: COLO 205 colon
SF-268 CNS = tested on: SF-268 CNS
SK-MEL-5 melanoma = tested on: SK-MEL-5 melanoma
DU-145 prostate = tested on: DU-145 prostate
ACHN renal = tested on: ACHN renal
UACC-257 melanoma = tested on: UACC-257 melanoma
HL-60(TB) leukemia = tested on: HL-60(TB) leukemia
MOLT-4 leukemia = tested on: MOLT-4 leukemia
OVCAR-4 ovarian = tested on: OVCAR-4 ovarian
MDA-N = tested on: MDA-N
SR leukemia = tested on: SR leukemia
MDA-MB-435 = tested on: MDA-MB-435
MALME-3M melanoma = tested on: MALME-3M melanoma
HCT-15 colon = tested on: HCT-15 colon
SF-295 CNS = tested on: SF-295 CNS
TK-10 renal = tested on: TK-10 renal
OVCAR-3 ovarian = tested on: OVCAR-3 ovarian
SF-539 CNS = tested on: SF-539 CNS
K-562 leukemia = tested on: K-562 leukemia
U251 CNS = tested on: U251 CNS
HS 578T breast = tested on: HS 578T breast
CAKI-1 renal = tested on: CAKI-1 renal
KM12 colon = tested on: KM12 colon
RXF 393 renal = tested on: RXF 393 renal
HT29 colon = tested on: HT29 colon
MCF7 breast = tested on: MCF7 breast
SNB-75 CNS = tested on: SNB-75 CNS
BT-549 breast = tested on: BT-549 breast
M14 melanoma = tested on: M14 melanoma
SK-MEL-28 melanoma = tested on: SK-MEL-28 melanoma
RPMI-8226 leukemia = tested on: RPMI-8226 leukemia
CCRF-CEM leukemia = tested on: CCRF-CEM leukemia
NCI-H23 lung = tested on: NCI-H23 lung
OVCAR-8 ovarian = tested on: OVCAR-8 ovarian
LOX IMVI melanoma = tested on: LOX IMVI melanoma
NCI/ADR-RES ovarian = tested on: NCI/ADR-RES ovarian
NCI-H460 lung = tested on: NCI-H460 lung
NCI-H522 lung = tested on: NCI-H522 lung
T-47D breast = tested on: T-47D breast
IGROV1 ovarian = tested on: IGROV1 ovarian
HCC-2998 colon = tested on: HCC-2998 colon
SNB-19 CNS = tested on: SNB-19 CNS
HCT-116 colon = tested on: HCT-116 colon
PC-3 prostate = tested on: PC-3 prostate
UO-31 renal = tested on: UO-31 renal
786-0 renal = tested on: 786-0 renal
SN12C renal = tested on: SN12C renal
A549 NSCLC = tested on: A549 NSCLC
A498 renal = tested on: A498 renal
NCI-H226 lung = tested on: NCI-H226 lung
HOP-62 NSCLC = tested on: HOP-62 NSCLC
SW-620 colon = tested on: SW-620 colon
SK-MEL-2 melanoma = tested on: SK-MEL-2 melanoma
SK-OV-3 ovarian = tested on: SK-OV-3 ovarian
UACC-62 melanoma = tested on: UACC-62 melanoma

Cc1n[nH]c(=O)n1-c1cccnc1
TGI (EKVX NSCLC): > 100 µM | TGI (HOP-92 NSCLC): > 100 µM | TGI (MDA-MB-231 breast): > 100 µM | TGI (OVCAR-5 ovarian): > 100 µM | TGI (COLO 205 colon): > 100 µM | TGI (SF-268 CNS): > 100 µM | TGI (SK-MEL-5 melanoma): > 100 µM | TGI (DU-145 prostate): > 100 µM | TGI (ACHN renal): > 100 µM | TGI (UACC-257 melanoma): > 100 µM | TGI (HL-60(TB) leukemia): > 100 µM | TGI (MOLT-4 leukemia): > 100 µM | TGI (OVCAR-4 ovarian): > 100 µM | TGI (MDA-N): > 100 µM | TGI (SR leukemia): > 100 µM | TGI (MDA-MB-435): > 100 µM | TGI (MALME-3M melanoma): > 100 µM | TGI (HCT-15 colon): > 100 µM | TGI (SF-295 CNS): > 100 µM | TGI (TK-10 renal): > 100 µM | TGI (OVCAR-3 ovarian): > 100 µM | TGI (SF-539 CNS): > 100 µM | TGI (K-562 leukemia): > 100 µM | TGI (U251 CNS): > 100 µM | TGI (HS 578T breast): > 100 µM | TGI (CAKI-1 renal): > 100 µM | TGI (KM12 colon): > 100 µM | TGI (RXF 393 renal): > 100 µM | TGI (HT29 colon): > 100 µM | TGI (MCF7 breast): > 100 µM | TGI (SNB-75 CNS): > 100 µM | TGI (BT-549 breast): > 100 µM | TGI (M14 melanoma): > 100 µM | TGI (SK-MEL-28 melanoma): > 100 µM | TGI (RPMI-8226 leukemia): > 100 µM | TGI (CCRF-CEM leukemia): > 100 µM | TGI (NCI-H23 lung): > 100 µM | TGI (OVCAR-8 ovarian): > 100 µM | TGI (LOX IMVI melanoma): > 100 µM | TGI (NCI/ADR-RES ovarian): > 100 µM | TGI (NCI-H460 lung): > 100 µM | TGI (NCI-H522 lung): > 100 µM | TGI (T-47D breast): > 100 µM | TGI (IGROV1 ovarian): > 100 µM | TGI (HCC-2998 colon): > 100 µM | TGI (SNB-19 CNS): > 100 µM | TGI (HCT-116 colon): > 100 µM | TGI (PC-3 prostate): > 100 µM | TGI (UO-31 renal): > 100 µM | TGI (786-0 renal): > 100 µM | TGI (SN12C renal): > 100 µM | TGI (A549 NSCLC): > 100 µM | TGI (A498 renal): > 100 µM | TGI (NCI-H226 lung): > 100 µM | TGI (HOP-62 NSCLC): > 100 µM | TGI (SW-620 colon): > 100 µM

COC(=O)[C@]12CC[C@H]3CN(C(=O)OCc4ccccc4)[C@H]([C@H]31)[C@H](C(=O)OCC[Si](C)(C)C)N2S(=O)(=O)c1ccc(C)cc1
TGI (EKVX NSCLC): > 100 µM | TGI (HOP-92 NSCLC): 9.68 µM | TGI (MDA-MB-231 breast): > 100 µM | TGI (OVCAR-5 ovarian): > 100 µM | TGI (COLO 205 colon): > 100 µM | TGI (SF-268 CNS): > 100 µM | TGI (SK-MEL-2 melanoma): > 100 µM | TGI (SK-MEL-5 melanoma): > 100 µM | TGI (DU-145 prostate): > 100 µM | TGI (ACHN renal): > 100 µM | TGI (UACC-257 melanoma): > 100 µM | TGI (HL-60(TB) leukemia): > 100 µM | TGI (MOLT-4 leukemia): > 100 µM | TGI (OVCAR-4 ovarian): > 100 µM | TGI (MDA-N): > 100 µM | TGI (SR leukemia): > 100 µM | TGI (MDA-MB-435): > 100 µM | TGI (MALME-3M melanoma): > 100 µM | TGI (HCT-15 colon): > 100 µM | TGI (SF-295 CNS): > 100 µM | TGI (TK-10 renal): > 100 µM | TGI (OVCAR-3 ovarian): > 100 µM | TGI (SF-539 CNS): > 100 µM | TGI (K-562 leukemia): > 100 µM | TGI (SK-OV-3 ovarian): > 100 µM | TGI (U251 CNS): > 100 µM | TGI (HS 578T breast): > 100 µM | TGI (CAKI-1 renal): > 100 µM | TGI (KM12 colon): > 100 µM | TGI (RXF 393 renal): > 100 µM | TGI (HT29 colon): > 100 µM | TGI (MCF7 breast): > 100 µM | TGI (BT-549 breast): > 100 µM | TGI (M14 melanoma): > 100 µM | TGI (SK-MEL-28 melanoma): > 100 µM | TGI (UACC-62 melanoma): > 100 µM | TGI (RPMI-8226 leukemia): > 100 µM | TGI (CCRF-CEM leukemia): > 100 µM | TGI (NCI-H23 lung): > 100 µM | TGI (OVCAR-8 ovarian): > 100 µM | TGI (LOX IMVI melanoma): > 100 µM | TGI (NCI/ADR-RES ovarian): > 100 µM | TGI (NCI-H460 lung): > 100 µM | TGI (NCI-H522 lung): > 100 µM | TGI (T-47D breast): > 100 µM | TGI (IGROV1 ovarian): > 100 µM | TGI (HCC-2998 colon): > 100 µM | TGI (SNB-19 CNS): > 100 µM | TGI (HCT-116 colon): > 100 µM | TGI (PC-3 prostate): > 100 µM | TGI (UO-31 renal): > 100 µM | TGI (786-0 renal): > 100 µM | TGI (SN12C renal): > 100 µM | TGI (A549 NSCLC): > 100 µM | TGI (A498 renal): > 100 µM | TGI (NCI-H226 lung): > 100 µM | TGI (HOP-62 NSCLC): > 100 µM | TGI (SW-620 colon): > 100 µM
